Holding throughout (type): in vivo
Data set [1] relates to house flies (Musca domestica, L.). Briefly: Fly Bait Test. Set-up: key: A: excellent control; B: partial control; C: no control. The note with it: 500 ppm in sugar-solution bait, 24 hours, mortality rating. As to the method: (§1) Suspensions of the test compounds were prepared by dissolving one gram of compound in 50 milliliters of acetone in which had been dissolved 0.1 gram (10 percent of the weight of compound) of an alkylphenoxy polyethoxyethanol surfactant, as an emulsifying or dispersing agent. The resulting solution was mixed into 150 milliliters of water to give roughly 200 milliliters of a suspension containing the compound in finely divided form. The thus-prepared stock suspension contained 0.5 percent by weight of compound. The test concentrations in parts per million by weight employed in the tests described hereinbelow were obtained by appropriate dilutions of the stock suspension with water. The test procedures were as follows:
Four to six day old adult house flies (Musca domestica, L.) reared according to the specifications of the Chemical Specialties Manufacturing Association (Blue Book, McNair-Dorland Co., N.Y. 1954; pages 243-244, 261) under controlled conditions of 80°±5° F. and 50±5 percent relative humidity, were the test insects. The flies were immobilized by anesthetizing with carbon dioxide and twenty five immobilized individuals, males and females, were transferred to a cage consisting of a standard food strainer about five inches in diameter which was inverted over a wrapping-paper-covered surface. The test compounds were formulated by diluting the stock suspension with a 10 percent (by weight) sugar solution to give a suspension containing 500 parts of test compound per million parts of final formulation, by weight. Ten milliliters of the test formulation were added to a souffle cup containing a one-inch square of an absorbent cotton pad. This bait cup was introduced and centered on the blotting paper under the food strainer prior to admitting the anesthetized flies. The caged flies were allowed to feed on the bait for twenty four hours, at a temperature of 80°±5° F. and the relative humidity of 50±5 percent.
(§2) In these tests the pesticidal activity of the compounds against aphid, mite, Southern Armyworm, Bean Beetle and house fly was rated as follows: […]

For data set [2], the system named is bean aphid (Aphis fabae Scop.). In words: Bean Aphid Foliage Spray Test. More on the design: key: A: excellent control; B: partial control; C: no control. The note with it: 500 ppm foliage spray, 24 hours, mortality rating. On the procedure: as §1
Bean Aphid Foliage Spray Test
Adults and nymphal stages of the bean aphid (Aphis fabae Scop.) reared on potted dwarf nasturtium plants at 65°-70° F. and 50-70 percent relative humidity, constituted the test insects. For testing purposes, the number of aphids per pot was standardized to 100-150 by trimming plants containing excess aphids.
The test compounds were formulated by diluting the stock suspension with water to give a suspension containing 500 parts of test compound per million parts of final formulation.
The potted plants (one pot per compound tested) infested with 100-150 aphids, were placed on a revolving turntable and sprayed with 100-110 milliliters of test compound formulation by use of a DeVilbiss spray gun set at 40 psig. air pressure. This application, which lasted 25 seconds, was sufficient to wet the plants to run-off. As a control, 100-110 milliliters of a water-acetone-emulsifier solution containing no test compound were also sprayed on infested plants. After spraying, the pots were placed on their sides on a sheet of white standard mimeograph paper which had been previously ruled to facilitate counting. Temperature and humidity in the test room during the 24 hour holding period were 65°-70° F. and 50-70 percent, respectively. Aphids which fell onto the paper and were unable to remain standing after being uprighted were considered dead. Aphids remaining on the plants were observed closely for movement and those which were unable to move the length of the body upon stimulation by prodding were considered dead. Percent mortality was recorded for various concentration levels.
as §2

For another data set, the system named is Bean. To be noted: 2500 ppm spray, ten days, rating 1-5. On the procedure:
(§3) POST-EMERGENT HERBICIDAL TEST
(§4) Experiments were also conducted to determine the phytotoxicity of representative compositions with respect to healthy fresh plants. Solutions of the compounds were prepared as described above to provide a concentration of 2500 parts per million of the test compound. The test plants were sprayed in accordance with the procedure described above for the Mite Foliage Spray Test so as to deliver approximately 100 milliliters of test solution to the leaves of each plant tested. The sprayed plants and controls were set aside for approximately one hour to allow the solutions to dry and were then placed in the greenhouse. After ten days the plants were visually inspected to determine the extent of foliage injury. A rating of 1 indicates no perceptible injury; 5 indicates the plant was dead and ratings of 2, 3 and 4 indicate intermediate degrees of injury based upon the number and extent to which leaves were injured.

The subject of a further data set is Tomato. To be noted: 2500 ppm spray, ten days, rating 1-5. As to the method:
as §3, §4

Another data set has as its system Soybean. The note with it: 2500 ppm spray, ten days, rating 1-5. As to the method:
as §3, §4

A further data set has as its system Corn. The note with it: 2500 ppm spray, ten days, rating 1-5. On the procedure: as §3, §4
The subject of a further data set is Cotton. The note with it: 2500 ppm spray, ten days, rating 1-5. On the procedure: as §3, §4
The test system of data set [3] is southern armyworm (Prodenia eridania, (Cram.)). In words: Southern Armyworm Leaf Spray Test. To be noted: 500 ppm leaf spray, larvae, three days, mortality rating. More on the design: key: A: excellent control; B: partial control; C: no control. As to the method: as §1
Southern Armyworm Leaf Spray Test
Larvae of the southern armyworm (Prodenia eridania, (Cram.)), reared on Tendergreen bean plants at a temperature of 80°±5° F. and a relative humidity of 50±5 percent, constituted the test insects.
The test compounds were formulated by diluting the stock suspension with water to give a suspension containing 500 parts of test compound per million parts of final formulation. Potted Tendergreen bean plants of standard height and age were placed on a revolving turntable and sprayed with 100-110 milliliters of test compound formulation by use of a DeVilbiss spray gun set at 10 psig air pressure. This application, which lasted 25 seconds, was sufficient to wet plants to run-off. As a control, 100-110 milliliters of a water-acetone-emulsifier solution containing no test compound were also sprayed on infested plants. When dry, the paired leaves were separated and each one was placed in a 9 centimeter Petri dish lined with moistened filter paper. Five randomly selected larvae were introduced into each dish and the dishes were closed. The closed dishes were labeled and held at 80°-85° F. for three days. Although the larvae could easily consume the whole leaf within twenty-four hours, no more food was added. Larvae which were unable to move the length of the body, even upon stimulation by prodding, were considered dead. Percent mortality was recorded for various concentration levels.
as §2

For data set [4], the system named is Mexican bean beetle (Epilachna varivestis, Muls.). In words: Mexican Bean Beetle Leaf Spray Test. More on the design: key: A: excellent control; B: partial control; C: no control. To be noted: 500 ppm leaf spray, fourth instar larvae, three days, mortality rating. On the procedure:
as §1
Mexican Bean Beetle Leaf Spray Test
Fourth instar larvae of the Mexican bean beetle (Epilachna varivestis, Muls.), reared on Tendergreen bean plants at a temperature of 80°±5° F. and 50±5 percent relative humidity, were the test insects.
The test compounds were formulated by diluting the stock suspension with water to give a suspension containing 500 parts of test compound per million parts of final formulation. Potted Tendergreen bean plants of standard height and age were placed on a revolving turntable and sprayed with 100-110 milliliters of test compound formulation by use of a DeVilbiss spray gun set at 10 psig air pressure. This application, which lasted 25 seconds, was sufficient to wet plants to run-off. As a control, 100-110 milliliters of a water-acetone-emulsifier solution containing no test compound were also sprayed on infested plants. When dry, the paired leaves were separated and each was placed in a 9 centimeter Petri dish lined with moistened filter paper. Five randomly selected larvae were introduced into each dish, and the dishes were closed. The closed dishes were labeled and held at a temperature of 80°±5° F. for three days. Although the larvae could easily consume the leaf within 24 to 48 hours, no more food was added. Larvae which were unable to move the length of the body, even upon stimulation, were considered dead.
as §2

For data set [5], the system named is two-spotted mite (Tetranychus urticae Koch). In words: Mite Foliage Spray Test. More on the design: key: A: excellent control; B: partial control; C: no control. To be noted: 500 ppm foliage spray, six days, mortality rating. As to the method: as §1
Adults and nymphal stages of the two-spotted mite (Tetranychus urticae Koch), reared on Tendergreen bean plants at 80±5 percent relative humidity, were the test organisms. Infested leaves from a stock culture were placed on the primary leaves of two bean plants six to eight inches in height, growing in a two-and-a-half inch clay pot. 150-200 Mites, a sufficient number for testing, transferred from the excised leaves to the fresh plants in a period of twenty four hours. Following the twenty four hour transfer period, the excised leaves were removed from the infested plants. The test compounds were formulated by diluting the stock suspension with water to give a suspension containing 500 parts of test compound per million parts of final formulation. The potted plants (one pot per compound) were placed on a revolving turntable and sprayed with 100-110 milliliters of test compound formulation by use of a DeVilbiss spray gun set at 40 psig. air pressure. This application, which lasted 25 seconds, was sufficient to wet the plants to run-off. As a control, 100-110 milliliters of a water solution containing acetone and emulsifier in the same concentrations as the test compound formulation, but containing no test compound, were also sprayed on infested plants. The sprayed plants were held at 80±5 percent relative humidity for six days, after which a mortality count of motile forms was made. Microscopic examination for motile forms was made on the leaves of the test plants. Any individual which was capable of locomotion upon prodding was considered living.
as §2

Each structure is given as a SMILES string.

In the case of `CCCCCCCCCCCCc1ccc(OC(=O)N(C)SN(C)C(=O)Oc2cccc3ccccc23)cc1`, in data set [1], the “Pesticidal Activity, House fly” value is listed as “C”. Further, the “Pesticidal Activity, Aphid” value in data set [2] is listed as “C”. Moreover, in the data set on Bean, the “Phytotoxicity, Bean” value is given as 1. Besides, in the data set on Tomato, the “Phytotoxicity, Tomato” value came to 1. The “Phytotoxicity, Soybean” value with Soybean was found to be 1. Also, in the data set on Corn, the “Phytotoxicity, Corn” value amounted to 1. In the data set with Cotton, the “Phytotoxicity, Cotton” value came to 1. Besides, in data set [3], the “Pesticidal Activity, Southern Armyworm” value is listed as “A”. Besides, the “Pesticidal Activity, Mexican Bean Beetle” value in data set [4] was “A”. Further, in data set [5], the “Pesticidal Activity, Mite” value was “C”.

Consider `CCCCCCCCCc1ccc(OC(=O)N(C)SN(C)C(=O)Oc2cccc3ccccc23)cc1`, for which the “Pesticidal Activity, House fly” value in data set [1] is “C”. Also, the “Pesticidal Activity, Aphid” value in [2] is reported as “C”. In addition, in the data set on Bean, the “Phytotoxicity, Bean” value worked out at 1. Besides, the “Phytotoxicity, Tomato” value with Tomato stood at 1. In addition, the “Phytotoxicity, Soybean” value in the data set with Soybean turned out to be 1. For the same compound, the “Phytotoxicity, Corn” value in the data set on Corn was 1. The “Phytotoxicity, Cotton” value with Cotton worked out at 1. In [3], the “Pesticidal Activity, Southern Armyworm” value is “A”. In addition, the “Pesticidal Activity, Mexican Bean Beetle” value in data set [4] is reported as “A”. The “Pesticidal Activity, Mite” value in [5] is listed as “C”.

`Cc1cc(OC(=O)N(C)SN(C)C(=O)Oc2ccc(N=CN(C)C)c(C)c2)ccc1N=CN(C)C` [drawing 41]: the “Pesticidal Activity, House fly” value in data set [1] is given as “A”. Also, in data set [2], the “Pesticidal Activity, Aphid” value was “A”. Also, in the data set on Bean, the “Phytotoxicity, Bean” value worked out at 1. The “Phytotoxicity, Tomato” value with Tomato was determined as 1. Moreover, the “Phytotoxicity, Soybean” value in the data set on Soybean was determined as 2. In addition, the “Phytotoxicity, Corn” value with Corn amounted to 1. Also, in the data set with Cotton, the “Phytotoxicity, Cotton” value is listed as 1. The “Pesticidal Activity, Southern Armyworm” value in data set [3] was “A”. Moreover, the “Pesticidal Activity, Mexican Bean Beetle” value in data set [4] was “A”. In data set [5], the “Pesticidal Activity, Mite” value was “A”.

For `CN(SN(C)C(=O)Oc1cccc2c1OC(C)(C)C2)C(=O)Oc1ccccc1C1SCCS1`, the “Pesticidal Activity, House fly” value in [1] is “A”. Further, the “Pesticidal Activity, Aphid” value in data set [2] is on record as “A”. Also, the “Phytotoxicity, Bean” value in the data set on Bean worked out at 1. Also, the “Phytotoxicity, Tomato” value with Tomato was determined as 1. The “Phytotoxicity, Soybean” value with Soybean was determined as 1. In the data set with Corn, the “Phytotoxicity, Corn” value stood at 1. In addition, in the data set on Cotton, the “Phytotoxicity, Cotton” value is 1. The “Pesticidal Activity, Southern Armyworm” value in data set [3] is reported as “A”. Further, in [4], the “Pesticidal Activity, Mexican Bean Beetle” value is recorded as “A”. Further, the “Pesticidal Activity, Mite” value in data set [5] is “B”.

These data come from US4264625A, “Pesticidal unsymmetrical bis-arylcarbamate sulfide compounds” (Union Carbide Corporation, priority 1978, dated 1981).
